Test results reported in ChEMBL document CHEMBL5291721, “A preclinical secondary pharmacology resource illuminates target-adverse drug reaction associations of marketed drugs” (Nat Commun, 2023).

Assays:
Histamine H3 receptor = Histamine H3 receptor (Homo sapiens, UniProt Q9Y5N1)
Glucocorticoid receptor = target: T1, Glucocorticoid receptor (Homo sapiens, UniProt P04150)
T1 sequence (P04150 whole entry): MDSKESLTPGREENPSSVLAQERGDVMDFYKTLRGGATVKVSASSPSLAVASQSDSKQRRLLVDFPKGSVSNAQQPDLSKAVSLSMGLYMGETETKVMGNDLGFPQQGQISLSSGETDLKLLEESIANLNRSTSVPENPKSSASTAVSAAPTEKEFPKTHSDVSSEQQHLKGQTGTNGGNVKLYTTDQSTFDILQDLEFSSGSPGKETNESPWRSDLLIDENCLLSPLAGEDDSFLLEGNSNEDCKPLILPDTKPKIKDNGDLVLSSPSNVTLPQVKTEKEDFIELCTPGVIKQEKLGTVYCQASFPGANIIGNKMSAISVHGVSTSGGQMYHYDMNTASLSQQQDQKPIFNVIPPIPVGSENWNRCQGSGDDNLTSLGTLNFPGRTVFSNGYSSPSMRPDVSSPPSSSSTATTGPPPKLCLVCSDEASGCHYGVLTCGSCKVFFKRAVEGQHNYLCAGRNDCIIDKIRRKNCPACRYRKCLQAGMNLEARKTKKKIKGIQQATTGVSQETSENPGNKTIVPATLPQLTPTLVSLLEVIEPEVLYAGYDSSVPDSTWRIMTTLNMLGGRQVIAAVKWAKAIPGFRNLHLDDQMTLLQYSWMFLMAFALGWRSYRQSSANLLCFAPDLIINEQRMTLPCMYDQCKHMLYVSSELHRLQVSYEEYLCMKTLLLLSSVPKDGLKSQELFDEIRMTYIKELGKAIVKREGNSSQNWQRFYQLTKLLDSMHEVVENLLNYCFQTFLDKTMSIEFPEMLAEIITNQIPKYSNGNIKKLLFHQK

D(1A) dopamine receptor = D(1A) dopamine receptor (Homo sapiens, UniProt P21728); type: functional, cell-based
[1] = target: 5-hydroxytryptamine receptor 2A (Homo sapiens, UniProt P28223); type: functional, cell-based
[2] = target: T2, 5-hydroxytryptamine receptor 3A (Homo sapiens, UniProt P46098); type: functional
T2 sequence (P46098 whole entry): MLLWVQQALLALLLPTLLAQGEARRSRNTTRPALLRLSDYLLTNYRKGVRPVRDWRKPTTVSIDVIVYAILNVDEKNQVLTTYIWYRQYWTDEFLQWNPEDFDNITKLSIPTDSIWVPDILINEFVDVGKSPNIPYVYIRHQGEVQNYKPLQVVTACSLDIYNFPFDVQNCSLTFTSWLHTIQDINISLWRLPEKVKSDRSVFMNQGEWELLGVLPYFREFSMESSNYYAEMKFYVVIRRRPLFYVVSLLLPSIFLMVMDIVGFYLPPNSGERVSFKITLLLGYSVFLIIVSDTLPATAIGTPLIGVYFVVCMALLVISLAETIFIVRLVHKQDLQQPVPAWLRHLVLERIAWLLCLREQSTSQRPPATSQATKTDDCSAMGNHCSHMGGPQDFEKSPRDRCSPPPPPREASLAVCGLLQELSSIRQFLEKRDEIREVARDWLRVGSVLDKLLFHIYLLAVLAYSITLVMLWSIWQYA

[3] = target: Delta-type opioid receptor (Homo sapiens, UniProt P41143)
[4] = target: Gamma-aminobutyric acid receptor subunit alpha-1 (Rattus norvegicus, UniProt P62813)
[5] = target: T3, Alpha-2C adrenergic receptor (Homo sapiens, UniProt P18825); type: functional
T3 sequence (P18825 whole entry): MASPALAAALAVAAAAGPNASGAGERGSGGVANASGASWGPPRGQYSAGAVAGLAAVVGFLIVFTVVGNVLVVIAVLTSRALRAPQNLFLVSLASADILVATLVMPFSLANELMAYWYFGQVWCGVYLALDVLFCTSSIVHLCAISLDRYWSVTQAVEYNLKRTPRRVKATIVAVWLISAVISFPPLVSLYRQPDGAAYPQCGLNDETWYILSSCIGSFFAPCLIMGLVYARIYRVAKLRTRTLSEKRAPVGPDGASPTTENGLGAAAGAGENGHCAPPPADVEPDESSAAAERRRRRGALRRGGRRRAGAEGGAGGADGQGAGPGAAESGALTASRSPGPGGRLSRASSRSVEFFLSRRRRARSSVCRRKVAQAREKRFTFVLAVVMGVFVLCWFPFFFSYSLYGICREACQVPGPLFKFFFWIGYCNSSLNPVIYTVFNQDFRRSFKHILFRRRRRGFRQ

[6] = target: T4, Muscarinic acetylcholine receptor M2 (Homo sapiens, UniProt P08172); type: functional, cell-based
T4 sequence (P08172 whole entry): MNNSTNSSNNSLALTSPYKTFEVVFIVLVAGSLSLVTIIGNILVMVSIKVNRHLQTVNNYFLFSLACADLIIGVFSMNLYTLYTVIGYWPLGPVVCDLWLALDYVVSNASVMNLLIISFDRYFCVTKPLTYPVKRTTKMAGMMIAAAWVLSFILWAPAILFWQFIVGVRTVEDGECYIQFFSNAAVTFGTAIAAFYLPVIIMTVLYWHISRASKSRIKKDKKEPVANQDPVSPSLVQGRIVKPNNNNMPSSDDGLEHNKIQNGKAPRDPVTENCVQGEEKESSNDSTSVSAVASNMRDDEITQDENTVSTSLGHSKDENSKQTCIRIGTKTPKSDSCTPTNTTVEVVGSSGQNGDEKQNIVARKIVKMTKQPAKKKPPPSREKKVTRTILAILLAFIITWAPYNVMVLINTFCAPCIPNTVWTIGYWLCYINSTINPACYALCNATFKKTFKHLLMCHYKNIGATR

[7] = target: T5, 5-hydroxytryptamine receptor 1A (Homo sapiens, UniProt P08908); type: functional, cell-based
T5 sequence (P08908 whole entry): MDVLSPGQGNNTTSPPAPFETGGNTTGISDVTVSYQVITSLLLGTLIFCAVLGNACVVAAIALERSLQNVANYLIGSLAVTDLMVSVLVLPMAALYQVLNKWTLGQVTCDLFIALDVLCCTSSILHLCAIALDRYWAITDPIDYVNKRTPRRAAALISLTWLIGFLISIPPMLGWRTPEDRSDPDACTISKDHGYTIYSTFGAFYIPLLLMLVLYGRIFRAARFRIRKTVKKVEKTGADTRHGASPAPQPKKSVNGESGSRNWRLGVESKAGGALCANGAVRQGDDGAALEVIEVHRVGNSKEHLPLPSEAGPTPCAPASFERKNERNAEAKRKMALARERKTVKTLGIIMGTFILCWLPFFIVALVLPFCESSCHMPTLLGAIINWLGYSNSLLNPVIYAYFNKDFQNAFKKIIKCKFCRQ
Note: assay procedure not described here.

Gamma-aminobutyric acid receptor subunit alpha-1, sequence (P62813 whole entry): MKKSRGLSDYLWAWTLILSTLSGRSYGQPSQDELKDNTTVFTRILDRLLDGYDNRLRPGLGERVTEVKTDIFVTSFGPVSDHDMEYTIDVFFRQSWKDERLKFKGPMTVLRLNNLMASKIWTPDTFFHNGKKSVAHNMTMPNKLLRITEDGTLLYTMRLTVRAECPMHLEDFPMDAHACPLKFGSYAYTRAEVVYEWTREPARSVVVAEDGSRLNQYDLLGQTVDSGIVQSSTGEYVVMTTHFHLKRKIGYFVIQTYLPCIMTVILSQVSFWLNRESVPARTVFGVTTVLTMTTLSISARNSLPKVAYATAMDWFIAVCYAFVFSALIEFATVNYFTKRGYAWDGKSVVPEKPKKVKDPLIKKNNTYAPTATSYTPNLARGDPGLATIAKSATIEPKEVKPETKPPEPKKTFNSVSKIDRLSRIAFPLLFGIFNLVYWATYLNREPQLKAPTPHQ
D(1A) dopamine receptor, sequence (P21728 whole entry): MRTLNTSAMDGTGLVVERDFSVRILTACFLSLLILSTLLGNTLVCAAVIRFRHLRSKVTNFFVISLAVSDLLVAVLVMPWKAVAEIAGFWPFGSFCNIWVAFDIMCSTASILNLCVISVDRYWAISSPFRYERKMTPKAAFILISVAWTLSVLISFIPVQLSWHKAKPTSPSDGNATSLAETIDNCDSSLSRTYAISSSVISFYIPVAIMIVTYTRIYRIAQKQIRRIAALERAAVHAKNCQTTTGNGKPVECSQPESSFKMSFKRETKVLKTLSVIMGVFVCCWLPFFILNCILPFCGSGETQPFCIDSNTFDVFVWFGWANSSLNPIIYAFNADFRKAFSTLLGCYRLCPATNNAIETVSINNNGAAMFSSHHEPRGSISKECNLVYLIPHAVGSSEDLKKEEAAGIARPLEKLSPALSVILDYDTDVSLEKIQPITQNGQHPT
Histamine H3 receptor, sequence (Q9Y5N1 whole entry): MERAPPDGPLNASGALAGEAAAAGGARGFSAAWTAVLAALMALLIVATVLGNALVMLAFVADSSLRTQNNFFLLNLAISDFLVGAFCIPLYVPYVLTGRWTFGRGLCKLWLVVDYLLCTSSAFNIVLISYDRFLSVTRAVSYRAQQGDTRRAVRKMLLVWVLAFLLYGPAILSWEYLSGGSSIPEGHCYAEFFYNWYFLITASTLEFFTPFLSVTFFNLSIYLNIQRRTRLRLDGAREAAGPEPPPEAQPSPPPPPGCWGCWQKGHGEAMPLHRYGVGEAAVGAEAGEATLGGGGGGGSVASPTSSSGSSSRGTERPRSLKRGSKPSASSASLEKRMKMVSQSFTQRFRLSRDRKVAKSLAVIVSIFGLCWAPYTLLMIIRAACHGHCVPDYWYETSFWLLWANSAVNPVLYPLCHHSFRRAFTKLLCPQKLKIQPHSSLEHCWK
Delta-type opioid receptor, sequence (P41143 whole entry): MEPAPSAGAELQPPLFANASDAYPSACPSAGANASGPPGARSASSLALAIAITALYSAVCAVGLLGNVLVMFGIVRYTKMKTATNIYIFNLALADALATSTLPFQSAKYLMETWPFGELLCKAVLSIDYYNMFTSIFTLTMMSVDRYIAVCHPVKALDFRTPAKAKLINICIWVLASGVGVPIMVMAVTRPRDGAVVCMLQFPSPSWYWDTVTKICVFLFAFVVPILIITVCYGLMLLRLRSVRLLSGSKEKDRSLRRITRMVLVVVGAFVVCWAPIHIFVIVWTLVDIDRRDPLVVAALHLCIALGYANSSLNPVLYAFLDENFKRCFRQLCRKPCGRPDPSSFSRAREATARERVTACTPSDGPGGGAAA
5-hydroxytryptamine receptor 2A, sequence (P28223 whole entry): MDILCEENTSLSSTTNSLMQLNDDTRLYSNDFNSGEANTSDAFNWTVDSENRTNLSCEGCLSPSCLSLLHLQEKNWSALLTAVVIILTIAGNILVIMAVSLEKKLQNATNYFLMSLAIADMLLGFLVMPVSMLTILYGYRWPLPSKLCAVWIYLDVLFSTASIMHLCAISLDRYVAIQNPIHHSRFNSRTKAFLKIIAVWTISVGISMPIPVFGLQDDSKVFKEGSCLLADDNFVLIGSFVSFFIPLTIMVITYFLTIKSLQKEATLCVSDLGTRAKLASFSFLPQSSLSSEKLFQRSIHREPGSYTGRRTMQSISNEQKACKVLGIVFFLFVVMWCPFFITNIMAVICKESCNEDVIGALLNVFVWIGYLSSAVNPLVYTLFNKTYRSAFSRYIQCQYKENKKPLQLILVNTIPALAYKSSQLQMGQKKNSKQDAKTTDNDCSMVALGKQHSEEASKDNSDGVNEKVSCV

AC50 (Histamine H3 receptor) | AC50 (Glucocorticoid receptor) | AC50 (D(1A) dopamine receptor) | AC50 [1] | AC50 [2] | AC50 [3] | AC50 [4] | AC50 [5] | AC50 [6] | AC50 [7] | Molecule
> 30 µM | > 30 µM | > 30 µM | > 30 µM | > 30 µM | > 30 µM | > 30 µM | > 30 µM | > 30 µM |  | CCN(CC)CC(=O)Oc1ccc(NC(C)=O)cc1 [PROPACETAMOL]
> 30 µM | > 30 µM | > 30 µM | > 30 µM | > 30 µM | > 30 µM | > 30 µM | > 30 µM | 3.6 µM |  | CCCOC(C(=O)OC1CCN(C)CC1)(c1ccccc1)c1ccccc1 [PROPIVERINE]
> 30 µM | > 30 µM | > 30 µM | > 30 µM | > 30 µM | 30 µM | > 30 µM | > 30 µM | > 30 µM |  | Cc1ccc2c(-c3ccccc3)nc(=O)n(C(C)C)c2c1 [PROQUAZONE]
> 30 µM | > 30 µM | > 30 µM | > 30 µM | > 30 µM | > 30 µM | > 30 µM | > 30 µM | > 30 µM |  | CN1CCN(c2c(F)cc3c(=O)c(C(=O)O)cn4c3c2SCC4)CC1 [RUFLOXACIN]
> 30 µM |  | > 30 µM | > 30 µM | > 30 µM | > 30 µM | 6.2 µM | > 30 µM | > 30 µM | > 30 µM | COc1c(O[C@@H]2O[C@H](CO)[C@@H](O)[C@H](O)[C@H]2O)cc2c(c1OC)-c1ccc(SC)c(=O)cc1[C@@H](NC(C)=O)CC2 [THIOCOLCHICOSIDE]
2.1 µM | > 30 µM | > 30 µM | > 30 µM | > 30 µM | > 30 µM | > 30 µM | 0.856 µM | 21 µM |  | COc1cc2c(Nc3ccc(Br)cc3F)ncnc2cc1OCC1CCN(C)CC1 [VANDETANIB]
> 10 µM | > 10 µM | > 10 µM | > 10 µM | > 30 µM | > 30 µM | > 10 µM | > 10 µM | > 10 µM |  | C=CC(N)CCC(=O)O (centres undefined) [VIGABATRIN]
> 10 µM | > 30 µM | > 30 µM | > 30 µM | > 30 µM | > 30 µM | > 30 µM | > 30 µM | > 30 µM |  | N#C[C@@H]1CCCN1C(=O)CNC12CC3CC(CC(O)(C3)C1)C2 [VILDAGLIPTIN]
 |  | > 30 µM | > 30 µM | > 30 µM | > 30 µM | > 30 µM | > 30 µM |  | > 30 µM | COLISTIN
